Assay results: PMC10444810, “Induction of open-form bile canaliculus formation by hepatocytes for evaluation of biliary drug excretion” (Communications Biology, 2023)
Values joined by “and” are separate entries in the source; they are usually repeats but may differ in a detail not shown here. Equal values may be shown once.

How the values were obtained:
CYP2C9 = molecular target: T1, CYP2C9 (Homo sapiens, UniProt P11712); assay: Metabolic assay, cocktail substrate method (diclofenac to 4’-hydroxydiclofenac); assay type: in vitro ADME; settings: for Enzyme activity, Mean: mean of Well-1 to Well-4
T1 construct: host or cells: PXB-cells (icHep: JFC, HUM181001B; sandwich culture: JFC)
T1 sequence (P11712 whole entry): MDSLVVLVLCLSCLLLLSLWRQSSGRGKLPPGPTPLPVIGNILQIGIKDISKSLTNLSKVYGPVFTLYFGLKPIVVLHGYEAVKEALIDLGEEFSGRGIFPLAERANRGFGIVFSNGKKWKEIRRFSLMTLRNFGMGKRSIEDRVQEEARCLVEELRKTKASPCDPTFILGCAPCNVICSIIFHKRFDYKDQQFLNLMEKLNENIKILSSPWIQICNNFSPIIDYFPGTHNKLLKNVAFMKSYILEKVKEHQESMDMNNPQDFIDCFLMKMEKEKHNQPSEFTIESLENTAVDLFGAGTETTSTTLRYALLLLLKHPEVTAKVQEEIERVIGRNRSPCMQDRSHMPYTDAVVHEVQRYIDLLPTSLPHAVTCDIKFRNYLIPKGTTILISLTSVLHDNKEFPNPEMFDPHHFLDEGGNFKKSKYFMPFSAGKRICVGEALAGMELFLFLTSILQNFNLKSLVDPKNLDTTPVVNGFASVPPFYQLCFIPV
Method: The metabolic activity of icHep and sandwich-cultured PXB-cells was measured using the cocktail substrate method of drug-metabolizing enzymes. The components of the cocktail are summarized in Supplementary Table 1. Assays were initiated by treating cells with TB containing cocktail substrates. Time point of each substrate was set when a linear increase in its metabolite production was observed. Concentrations of metabolites produced in the medium were measured by liquid chromatography-mass spectrometry (LC-MS/MS).

[1] = system: primary human hepatocytes / PXB-cells; assay: Counting hepatocyte bile canaliculi opening to the culture equipment (hemi-lumen formation rate); assay type: cell-based
Method: Transwell^TM permeable support used was coated with 50 μg/ml rat tail collagen I (Corning) in 0.02 N acetic acid at room temperature for 1 h. Transwell^TM was washed twice with PBS, then the in vitro-synthesised claudin-1, -2, -3, and -9 proteins were applied to Transwell^TM at a density of 750 ng/cm^2 each and incubated at room temperature for 1 h. Transwell^TM was washed twice with PBS before seeding cells. Cryopreserved human hepatocytes (Donor ID. HU1663) were purchased from Thermo Fisher Scientific and thawed using CHRM. The hepatocytes were then diluted with WEM containing CM3000. PXB-cells (Donor ID. JFC, and HUM181001B) were obtained from PhoenixBio (Hiroshima, Japan) as described previously. […] PXB-cells were resuspended in 2% DMSO-supplemented hepatocyte growth medium (d-HCGM)[27]. Cryopreserved human hepatocytes and PXB-cells were seeded at a density of 2.1 × 10^5 cells/cm^2 in the protein-coated culture equipment. After 4 h of incubation, the culture medium was replaced with fresh culture medium to remove the unattached cells. After 24 h of incubation, the cells were cultured in d-HCGM supplemented with 250 μg/ml Matrigel. The spent medium was replaced with fresh medium every 3 days. Donor information for the human hepatocytes used is listed in Supplementary Table 2.
To count the open- and closed-type bile canaliculi, MRP2 immunostaining was performed using the Z-stack function of a confocal microscope (LSM710; Carl Zeiss, Oberkochen, Germany). Immunostaining was performed as previously described. The ratio of open-type bile canaliculi to the total number of bile canaliculi was calculated according to Eq. (1), and the value obtained was evaluated as the induction rate of open-type bile canaliculi. Here, Aopen bile canaliculi and Abile canaliculi indicate the number of open-type bile canaliculi and total number of bile canaliculi, respectively.1 Formationrate%=Aopenbilecanaliculi/Abilecanaliculi×100

O=C(O)Cc1ccccc1Nc1c(Cl)cc(O)cc1Cl [4'-Hydroxydiclofenac]
Enzyme activity (CYP2C9; PXB-cells (JFC), incubation time 15 min, single wells): 32.4909 pmol/106 cells and 28.9867 pmol/106 cells and 32.417 pmol/106 cells and 39.4949 pmol/106 cells
Enzyme activity (CYP2C9; PXB-cells (JFC), incubation time 45 min, single wells): 103.35 pmol/106 cells and 157.866 pmol/106 cells and 142.816 pmol/106 cells and 89.3242 pmol/106 cells
Enzyme activity (CYP2C9; PXB-cells (JFC), incubation time 60 min, single wells): 194.793 pmol/106 cells and 123.239 pmol/106 cells and 152.615 pmol/106 cells and 131.028 pmol/106 cells
Enzyme activity (CYP2C9; PXB-cells (JFC), incubation time 90 min, single wells): 221.365 pmol/106 cells and 186.616 pmol/106 cells and 184.241 pmol/106 cells and 181.726 pmol/106 cells
Enzyme activity, Mean (CYP2C9; PXB-cells (JFC)): 3.17 pmol/min/106 cells
Enzyme activity (CYP2C9; icHep (HUM18100B), incubation time 15 min, single wells): 62.619 pmol/106 cells and 66.4901 pmol/106 cells and 58.8292 pmol/106 cells and 61.6593 pmol/106 cells
Enzyme activity (CYP2C9; icHep (HUM18100B), incubation time 30 min, single wells): 81.779 pmol/106 cells and 78.031 pmol/106 cells and 78.5116 pmol/106 cells and 74.8686 pmol/106 cells
Enzyme activity (CYP2C9; icHep (HUM18100B), incubation time 45 min, single wells): 182.486 pmol/106 cells and 164.871 pmol/106 cells and 179.779 pmol/106 cells and 151.258 pmol/106 cells
Enzyme activity (CYP2C9; icHep (HUM18100B), incubation time 60 min, single wells): 261.919 pmol/106 cells and 224.09 pmol/106 cells and 240.209 pmol/106 cells and 233.857 pmol/106 cells
Enzyme activity (CYP2C9; icHep (HUM18100B), incubation time 90 min, single wells): 338.304 pmol/106 cells and 344.261 pmol/106 cells and 316.721 pmol/106 cells and 314.843 pmol/106 cells
Enzyme activity, Mean (CYP2C9; icHep (HUM18100B)): 5.39 pmol/min/106 cells
Enzyme activity (CYP2C9; icHep (HUM18100B), rate per single well): 6.00 pmol/min/106 cells and 4.87 pmol/min/106 cells and 5.39 pmol/min/106 cells and 5.30 pmol/min/106 cells
Enzyme activity (CYP2C9; icHep (JFC), incubation time 15 min, single wells): 37.2763 pmol/106 cells and 45.1543 pmol/106 cells and 35.8326 pmol/106 cells and 34.722 pmol/106 cells
Enzyme activity (CYP2C9; icHep (JFC), incubation time 30 min, single wells): 59.5169 pmol/106 cells and 77.189 pmol/106 cells and 52.7871 pmol/106 cells and 61.7238 pmol/106 cells
Enzyme activity (CYP2C9; icHep (JFC), incubation time 45 min, single wells): 104.976 pmol/106 cells and 107.851 pmol/106 cells and 132.309 pmol/106 cells and 91.4661 pmol/106 cells
Enzyme activity (CYP2C9; icHep (JFC), incubation time 60 min, single wells): 189.516 pmol/106 cells and 192.792 pmol/106 cells and 199.605 pmol/106 cells and 200.079 pmol/106 cells
Enzyme activity (CYP2C9; icHep (JFC), incubation time 90 min, single wells): 261.512 pmol/106 cells and 227.854 pmol/106 cells and 218.992 pmol/106 cells and 224.098 pmol/106 cells
Enzyme activity, Mean (CYP2C9; icHep (JFC)): 4.42 pmol/min/106 cells
Enzyme activity (CYP2C9; icHep (JFC), rate per single well): 4.33 pmol/min/106 cells and 3.85 pmol/min/106 cells and 4.89 pmol/min/106 cells and 4.61 pmol/min/106 cells

B1: claudin-1: human claudin-1 protein from E. coli cell-free synthesis, coated on the permeable support (protein, UniProt O95832 1-211, looked up)
Claudin-1: MANAGLQLLGFILAFLGWIGAIVSTALPQWRIYSYAGDNIVTAQAMYEGLWMSCVSQSTGQIQCKVFDSLLNLSSTLQATRALMVVGILLGVIAIFVATVGMKCMKCLEDDEVQKMRMAVIGGAIFLLAGLAILVATAWYGNRIVQEFYDPMTPVNARYEFGQALFTGWAAASLCLLGGALLCCSCPRKTTSYPTPRPYPKPAPSSGKDYV
hemi-lumen formation rate ([1]; PXB-cells (donor), supports individually coated with each claudin): 44.5 ± 4.8%
Open bile canalicular formation rate (%) Mean ([1]; icHep (JFC), claudin coating, mean of 3): 44.5%
Open bile canalicular formation rate (%) ([1]; icHep (JFC), claudin coating, single replicate): 50.0% and 41.5% and 42.0%
